In PubChem BioAssay AID330 (DTP/NCI, 2004):
Values joined by “and” are separate entries in the source; they are usually repeats but may differ in a detail not shown here. Identical values can stand only once. Inconclusive results and toxic doses are left out.

Tested on: P388 leukemia ip, CD2F1 mice, survival T/C
Assay: NCI In Vivo Anticancer Drug Screen. Data for tumor model P388 Leukemia (intraperitoneal) in CD2F1 (CDF1) mice
Settings: endpoint: median survival time, higher = longer survival
Summary of the method: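 Mice carrying the transplanted tumor received test compound or vehicle. Survival was recorded in each group, and the value is the treated-group measurement divided by that of the vehicle-treated control group.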

[1] = dose: 60.0 mg/kg/injection, schedule: Q01DX005 (ip), vehicle: saline with Tween-80
[2] = dose: 120.0 mg/kg/injection, schedule: Q01DX005 (ip), vehicle: saline with Tween-80
[3] = dose: 240.0 mg/kg/injection, schedule: Q01DX005 (ip), vehicle: saline with Tween-80
[4] = dose: 25.0 mg/kg/injection, schedule: Q01DX009 (ip), vehicle: saline with Tween-80
[5] = dose: 50.0 mg/kg/injection, schedule: Q01DX009 (ip), vehicle: saline with Tween-80
[6] = dose: 100.0 mg/kg/injection, schedule: Q01DX009 (ip), vehicle: saline with Tween-80
[7] = dose: 6.25 mg/kg/injection, schedule: Q01DX009 (ip), vehicle: saline with Tween-80
[8] = dose: 12.5 mg/kg/injection, schedule: Q01DX009 (ip), vehicle: saline with Tween-80
[9] = dose: 12.5 mg/kg/injection, schedule: Q04DX003 (ip), vehicle: saline with Tween-80
[10] = dose: 200.0 mg/kg/injection, schedule: Q01DX009 (ip), vehicle: saline with Tween-80
[11] = dose: 25.0 mg/kg/injection, schedule: Q04DX003 (ip), vehicle: saline with Tween-80
[12] = dose: 12.5 mg/kg/injection, schedule: Q01DX005 (ip), vehicle: saline with Tween-80
[13] = dose: 25.0 mg/kg/injection, schedule: Q01DX005 (ip), vehicle: saline with Tween-80
[14] = dose: 50.0 mg/kg/injection, schedule: Q01DX005 (ip), vehicle: saline with Tween-80
[15] = dose: 100.0 mg/kg/injection, schedule: Q01DX005 (ip), vehicle: saline with Tween-80
[16] = dose: 200.0 mg/kg/injection, schedule: Q01DX005 (ip), vehicle: saline with Tween-80
[17] = dose: 100.0 mg/kg/injection, schedule: Q04DX003 (ip), vehicle: saline
[18] = dose: 200.0 mg/kg/injection, schedule: Q04DX003 (ip), vehicle: saline
[19] = dose: 400.0 mg/kg/injection, schedule: Q04DX003 (ip), vehicle: saline
[20] = dose: 100.0 mg/kg/injection, schedule: Q04DX003 (ip), vehicle: saline with Tween-80

Cc1nc(N)nc2c1CCC(O)S2 (stereo unspecified)
T/C (dose: 50.0 mg/kg/injection, schedule: Q01DX005 (ip), vehicle: saline): 98 % of control
T/C (dose: 100.0 mg/kg/injection, schedule: Q01DX005 (ip), vehicle: saline): 102 % of control
T/C (dose: 200.0 mg/kg/injection, schedule: Q01DX005 (ip), vehicle: saline): 96 % of control

O=C(NCc1ccco1)Nc1ccccc1C(F)(F)F
T/C [1]: 94 % of control
T/C [2]: 99 % of control
T/C [3]: 90 % of control

CC1NCC23CCC4C(CC=C5CC(O)CCC54C)C2CCC13 (stereo unspecified)
T/C [4]: 90 % of control
T/C [5]: 87 % of control
T/C [6]: 94 % of control

CC1(C)N=C(N)N=C(N)N1c1cccc(CCCCOc2ccccc2)c1
T/C (dose: 3.13 mg/kg/injection, schedule: Q01DX009 (ip), vehicle: saline with Tween-80): 150 % of control
T/C [7]: 150 % of control
T/C (dose: 6.25 mg/kg/injection, schedule: Q04DX003 (ip), vehicle: saline with Tween-80): 113 % of control
T/C [8]: 154 % of control
T/C [9]: 109 % of control
T/C (dose: 18.0 mg/kg/injection, schedule: Q01DX009 (ip), vehicle: saline with Tween-80): 95 % of control

c1ccc(Nc2ncnc3ccccc23)cc1
T/C (dose: 50.0 mg/kg/injection, schedule: Q01DX009 (ip), vehicle: Klucel (hydroxypropylcellulose) (HPC)): 102 % of control
T/C (dose: 100.0 mg/kg/injection, schedule: Q01DX009 (ip), vehicle: Klucel (hydroxypropylcellulose) (HPC)): 102 % of control
T/C (dose: 200.0 mg/kg/injection, schedule: Q01DX009 (ip), vehicle: Klucel (hydroxypropylcellulose) (HPC)): 112 % of control

CCOc1ccc(-n2c(=O)c(N=Nc3ccccc3Cl)c(O)n(-c3ccc(Br)cc3)c2=S)cc1
T/C (dose: 100.0 mg/kg/injection, schedule: Q04DX002 (ip), vehicle: saline with Tween-80): 90 % of control
T/C (dose: 200.0 mg/kg/injection, schedule: Q04DX002 (ip), vehicle: saline with Tween-80): 94 % of control
T/C (dose: 400.0 mg/kg/injection, schedule: Q04DX002 (ip), vehicle: saline with Tween-80): 87 % of control

C/C(CC(=O)c1ccccc1)=C1\C(=O)NN(c2ccccc2)C1=O
T/C [1]: 101 % of control
T/C [2]: 101 % of control
T/C [3]: 93 % of control

C(CCCSC1=NCCN1)CCSC1=NCCN1
T/C (dose: 50.0 mg/kg/injection, schedule: Q01DX009 (ip), vehicle: saline): 103 % of control
T/C (dose: 100.0 mg/kg/injection, schedule: Q01DX009 (ip), vehicle: saline): 100 % of control

CCN(CC)CCNc1n[nH]c(=O)c2ccccc12
T/C [5]: 104 % of control
T/C [6]: 101 % of control
T/C [10]: 95 % of control

N#CCc1ccc(Cl)c(Cl)c1
T/C [7]: 104 % of control
T/C [8]: 100 % of control
T/C [9]: 100 % of control
T/C [4]: 100 % of control
T/C [11]: 100 % of control

COC1=CC(=O)C=C(CO)C1=O
T/C (dose: 1.56 mg/kg/injection, schedule: Q01DX009 (ip), vehicle: saline): 104 % of control
T/C (dose: 3.12 mg/kg/injection, schedule: Q01DX009 (ip), vehicle: saline): 107 % of control
T/C (dose: 6.25 mg/kg/injection, schedule: Q01DX009 (ip), vehicle: saline): 111 % of control and 94 % of control

COc1ccc(S(=O)(=O)N/N=C(/C(=O)O)c2ccccc2)cc1
T/C [12]: 95 % of control
T/C [13]: 94 % of control
T/C [14]: 106 % of control
T/C [15]: 100 % of control
T/C [16]: 109 % of control and 112 % of control
T/C (dose: 400.0 mg/kg/injection, schedule: Q01DX005 (ip), vehicle: saline with Tween-80): 109 % of control

Nc1nnc2nc(C(C(=O)c3cccc(O)c3)c3nc4nnc(N)n4[nH]c3=O)c(=O)[nH]n12
T/C (dose: 60.0 mg/kg/injection, schedule: Q01DX005 (ip), vehicle: saline): 97 % of control
T/C (dose: 120.0 mg/kg/injection, schedule: Q01DX005 (ip), vehicle: saline): 106 % of control
T/C (dose: 240.0 mg/kg/injection, schedule: Q01DX005 (ip), vehicle: saline): 97 % of control

CNC(=O)Oc1ccc(C2CCCCC2)cc1
T/C [5]: 107 % of control
T/C [6]: 107 % of control
T/C [10]: 88 % of control

c1ccc(C2c3ccccc3Nc3ccccc32)cc1
T/C (dose: 6.25 mg/kg/injection, schedule: Q04DX002 (ip), vehicle: saline with Tween-80): 104 % of control
T/C (dose: 12.5 mg/kg/injection, schedule: Q04DX002 (ip), vehicle: saline with Tween-80): 97 % of control
T/C (dose: 25.0 mg/kg/injection, schedule: Q04DX002 (ip), vehicle: saline with Tween-80): 97 % of control

COCC1(C)CCCC2(C)C3=C(CCC(O)C3)CCC12 (stereo unspecified)
T/C [17]: 99 % of control
T/C [18]: 99 % of control
T/C [19]: 97 % of control

O=S1(=O)CCC2=CC(C(F)(F)F)=CC(C(F)(F)F)=CN21
T/C [12]: 109 % of control
T/C [13]: 122 % of control
T/C [14]: 107 % of control

Cc1nc2c(c(-c3ccccc3)n1)Cc1c(ccc3ccccc13)O2
T/C [5]: 96 % of control
T/C [6]: 102 % of control
T/C [10]: 99 % of control
T/C (dose: 400.0 mg/kg/injection, schedule: Q01DX009 (ip), vehicle: saline with Tween-80): 92 % of control

CCCS(=O)(=O)/C=C/C(=O)c1ccc2ccccc2c1
T/C [17]: 105 % of control
T/C [18]: 108 % of control
T/C [19]: 106 % of control

OC1(c2ccc(CCc3ccc(C4(O)C(c5ccccc5)=C(c5ccccc5)C(c5ccccc5)=C4c4ccccc4)cc3)cc2)C(c2ccccc2)=C(c2ccccc2)C(c2ccccc2)=C1c1ccccc1
T/C [7]: 100 % of control
T/C [8]: 97 % of control
T/C [4]: 93 % of control
T/C (dose: 200.0 mg/kg/injection, schedule: Q01DX001 (ip), vehicle: Klucel (hydroxypropylcellulose) (HPC)): 89 % of control

O=C(Nc1ccc2c(c1)OCO2)O/N=C1\C(=O)Nc2ccccc21
T/C [11]: 100 % of control
T/C (dose: 50.0 mg/kg/injection, schedule: Q04DX003 (ip), vehicle: saline with Tween-80): 90 % of control
T/C [20]: 90 % of control

C[N+]1(C)C2CCC1CC(=O)C2
T/C (dose: 12.5 mg/kg/injection, schedule: Q01DX009 (ip), vehicle: suspension in saline): 107 % of control
T/C (dose: 25.0 mg/kg/injection, schedule: Q01DX009 (ip), vehicle: suspension in saline): 107 % of control

O=C(NC1COB(c2ccccc2)OC1c1ccc([N+](=O)[O-])cc1)C(Cl)Cl (stereo unspecified)
T/C (dose: 60.0 mg/kg/injection, schedule: Q01DX005 (ip), vehicle: Klucel (hydroxypropylcellulose) (HPC)): 97 % of control
T/C (dose: 120.0 mg/kg/injection, schedule: Q01DX005 (ip), vehicle: Klucel (hydroxypropylcellulose) (HPC)): 97 % of control
T/C (dose: 240.0 mg/kg/injection, schedule: Q01DX005 (ip), vehicle: Klucel (hydroxypropylcellulose) (HPC)): 99 % of control

C/C=C\C(/C=C/C)(C(=O)OCCN(C)C)C(/C=C\C)(/C=C/C)C(=O)OCCN(C)C (stereo unspecified)
T/C [14]: 100 % of control
T/C [15]: 100 % of control
T/C [16]: 91 % of control

COc1cccc2cc3c(cc12)C(=O)C(C)=C(C)C3=O
T/C (dose: 100.0 mg/kg/injection, schedule: Q04DX003 (ip), vehicle: Klucel (hydroxypropylcellulose) (HPC)): 94 % of control
T/C (dose: 200.0 mg/kg/injection, schedule: Q04DX003 (ip), vehicle: Klucel (hydroxypropylcellulose) (HPC)): 97 % of control
T/C (dose: 400.0 mg/kg/injection, schedule: Q04DX003 (ip), vehicle: Klucel (hydroxypropylcellulose) (HPC)): 109 % of control

CC(=O)OCC1OC(n2cnc3c(N)ncnc32)C2OC(C)(C)OC12 (stereo unspecified)
T/C (dose: 50.0 mg/kg/injection, schedule: Q01DX005 (ip), vehicle: Klucel (hydroxypropylcellulose) (HPC)): 101 % of control
T/C (dose: 100.0 mg/kg/injection, schedule: Q01DX005 (ip), vehicle: Klucel (hydroxypropylcellulose) (HPC)): 97 % of control

O=C(OCCO)c1ccccc1O
T/C [20]: 95 % of control
T/C (dose: 200.0 mg/kg/injection, schedule: Q04DX003 (ip), vehicle: saline with Tween-80): 104 % of control
T/C (dose: 400.0 mg/kg/injection, schedule: Q04DX003 (ip), vehicle: saline with Tween-80): 95 % of control

Cc1ccc(-n2c(CSc3ccc(Cl)cc3)nnc2SCc2nc3ccccc3[nH]2)cc1
T/C (dose: 15.0 mg/kg/injection, schedule: Q01DX005 (ip), vehicle: saline with Tween-80): 92 % of control
T/C (dose: 30.0 mg/kg/injection, schedule: Q01DX005 (ip), vehicle: saline with Tween-80): 102 % of control
T/C [1]: 96 % of control and 98 % of control
